Where two headings read alike, the source gives them in different places.
Tests used:
[1] = biological target: Tyrosyl-DNA phosphodiesterase 1 (TDP1) (Homo sapiens, UniProt Q9NUW8); experiment: TDP1 inhibition; type: biochemical; conditions: scores correspond to IC50 ranges
Source text: Tyrosyl-DNA phosphodiesterase 1 (TDP1) is a DNA repair enzyme that repairs cytotoxic DNA damage induced by Top1 inhibitors.

[2] = test system: all human cancer cell lines successfully tested; experiment: NCI-60 cell line assay, mean-graph midpoint; type: cell-based; conditions: for GI50: read-out: MGM GI50; for MGM (mean graph midpoint for growth inhibition): all human cancer cell lines tested, 10^−8 to 10^−4 molar
Description: Biological Results. The indenoisoquinoline analogues were tested for antiproliferative activity in the National Cancer Institute's Developmental Therapeutics Assay against cell lines derived from approximately 60 different human tumors. […] The cytotoxicities of the compounds to cultured cancer cells were measured in the National Cancer Institute's 60 cell line assay (a.k.a. NCI-60).

[3] = test system: OVCAR-3 (Ovarian); experiment: NCI Developmental Therapeutics antiproliferative assay, OVCAR-3; type: cell-based, human
Description: (§1) Biological Results. The indenoisoquinoline analogues were tested for antiproliferative activity in the National Cancer Institute's Developmental Therapeutics Assay against cell lines derived from approximately 60 different human tumors. […] Results are reported in Table 2 as GI50 values for selected cell lines, and overall antiproliferative potency is quantified as a mean-graph midpoint (MGM).

[4] = test system: HCT-116 (Colon); experiment: NCI Developmental Therapeutics antiproliferative assay, HCT-116; type: cell-based, human
Description: (§2) Biological Results. The indenoisoquinoline analogues were tested for antiproliferative activity in the National Cancer Institute's Developmental Therapeutics Assay against cell lines derived from approximately 60 different human tumors.

[5] = test system: MCF7 (Breast); experiment: NCI Developmental Therapeutics antiproliferative assay, MCF7; type: cell-based, human
Description: as §1

[6] = test system: SN12C (Renal); experiment: NCI Developmental Therapeutics antiproliferative assay, SN12C; type: cell-based, human
Description: as §1

[7] = test system: DU-145 (Prostate); experiment: NCI Developmental Therapeutics antiproliferative assay, DU-145; type: cell-based, human
Description: as §2

[8] = test system: UACC-62 (Melanoma); experiment: NCI Developmental Therapeutics antiproliferative assay, UACC-62; type: cell-based, human
Description: as §2

[9] = test system: SF-539 (CNS); experiment: NCI Developmental Therapeutics antiproliferative assay, SF-539; type: cell-based, human
Description: as §1

[10] = test system: HOP-62 (Lung); experiment: NCI Developmental Therapeutics antiproliferative assay, HOP-62; type: cell-based, human
Description: as §2

[11] = biological target: T1, Human recombinant Top1 (Homo sapiens, UniProt P11387); experiment: Top1-mediated DNA cleavage assay; conditions: scale relative to 1 μM camptothecin
T1 sequence (P11387 1-765): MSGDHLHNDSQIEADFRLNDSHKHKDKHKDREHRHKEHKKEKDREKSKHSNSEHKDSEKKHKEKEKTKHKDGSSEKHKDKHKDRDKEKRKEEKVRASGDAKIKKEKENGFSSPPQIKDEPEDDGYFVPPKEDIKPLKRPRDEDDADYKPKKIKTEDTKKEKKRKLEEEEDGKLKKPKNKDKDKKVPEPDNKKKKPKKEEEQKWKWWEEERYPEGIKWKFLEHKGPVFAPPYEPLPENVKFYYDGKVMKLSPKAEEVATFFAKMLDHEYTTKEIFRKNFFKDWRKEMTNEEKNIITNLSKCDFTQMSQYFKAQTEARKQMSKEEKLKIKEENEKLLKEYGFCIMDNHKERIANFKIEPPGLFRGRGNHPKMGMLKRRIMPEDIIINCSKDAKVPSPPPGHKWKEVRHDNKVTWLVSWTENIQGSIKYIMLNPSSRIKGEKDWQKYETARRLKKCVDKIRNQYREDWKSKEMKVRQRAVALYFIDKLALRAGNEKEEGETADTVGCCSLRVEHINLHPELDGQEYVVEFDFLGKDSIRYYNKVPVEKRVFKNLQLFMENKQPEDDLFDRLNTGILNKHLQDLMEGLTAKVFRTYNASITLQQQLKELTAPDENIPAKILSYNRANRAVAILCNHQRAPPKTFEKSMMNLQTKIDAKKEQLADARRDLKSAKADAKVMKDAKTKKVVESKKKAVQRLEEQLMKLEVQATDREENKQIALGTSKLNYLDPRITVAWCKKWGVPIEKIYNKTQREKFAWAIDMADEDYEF
Description: Topoisomerase I-Mediated DNA Cleavage Reactions. Human recombinant Top1 was purified from Baculovirus as previously described. […] Unincorporated [32]P-dGTP was removed using mini Quick Spin DNA columns (Roche, Indianapolis, Ind.), and the eluate containing the 3'-end-labeled DNA substrate was collected. […] The reactions were terminated by adding SDS (0.5% final concentration) followed by the addition of two volumes of loading dye (80% formamide, 10 mM sodium hydroxide, 1 mM sodium EDTA, 0.1% xylene cyanol, and 0.1% bromphenol blue). Aliquots of each reaction were subjected to 20% denaturing PAGE. Gels were dried and visualized by using a Phosphoimager and ImageQuant software (Molecular Dynamics).

[12] = test system: cell lines derived from approximately 60 different human tumors; experiment: NCI initial one-dose screening assay; type: cell-based; conditions: percentage of cell growth, one-dose assay at 10 μM
[13] = Homo sapiens, Table 3, NCI-60, unit inferred
[14] = Homo sapiens, OVCAR-3, 50% growth inhibition, read-out: Cytotoxicity (GI50) Ovarian OVCAR-3
[15] = Homo sapiens, HCT-116, 50% growth inhibition, read-out: Cytotoxicity (GI50) Colon HCT-116
[16] = Homo sapiens, MCF7, 50% growth inhibition, read-out: Cytotoxicity (GI50) Breast MCF7
[17] = Homo sapiens, SN12C, 50% growth inhibition, read-out: Cytotoxicity (GI50) Renal SN12C
[18] = Homo sapiens, DU-145, 50% growth inhibition, read-out: Cytotoxicity (GI50) Prostate DU-145
[19] = Homo sapiens, UACC-62, 50% growth inhibition, read-out: Cytotoxicity (GI50) Melanoma UACC-62
[20] = Homo sapiens, SF-539, 50% growth inhibition, read-out: Cytotoxicity (GI50) CNS SF-539
[21] = Homo sapiens, HOP-62, 50% growth inhibition, read-out: Cytotoxicity (GI50) Lung HOP-62

Chain of Tyrosyl-DNA phosphodiesterase 1 (TDP1) (Q9NUW8 whole entry, species assumed): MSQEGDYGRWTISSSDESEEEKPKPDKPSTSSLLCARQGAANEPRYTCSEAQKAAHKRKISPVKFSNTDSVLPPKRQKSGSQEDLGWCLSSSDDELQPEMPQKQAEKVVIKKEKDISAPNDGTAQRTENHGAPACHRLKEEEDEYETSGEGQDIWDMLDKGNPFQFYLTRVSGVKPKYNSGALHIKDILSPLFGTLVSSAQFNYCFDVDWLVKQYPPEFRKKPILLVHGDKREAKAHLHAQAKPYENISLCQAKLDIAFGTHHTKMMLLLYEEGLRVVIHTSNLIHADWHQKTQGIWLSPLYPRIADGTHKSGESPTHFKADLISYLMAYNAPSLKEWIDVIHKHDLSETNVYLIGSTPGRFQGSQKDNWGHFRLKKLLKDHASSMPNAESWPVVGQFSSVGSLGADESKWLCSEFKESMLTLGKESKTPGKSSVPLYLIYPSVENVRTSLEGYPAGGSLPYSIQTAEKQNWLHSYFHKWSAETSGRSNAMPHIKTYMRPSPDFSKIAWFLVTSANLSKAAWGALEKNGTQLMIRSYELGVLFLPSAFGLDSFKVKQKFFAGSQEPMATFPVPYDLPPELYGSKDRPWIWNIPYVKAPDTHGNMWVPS

Compound	IC50 [1] [µM]	MGM (mean graph midpoint for growth inhibition) [2] [µM]	GI50 [3] [µM]	GI50 [4] [µM]	GI50 [5] [µM]	GI50 [6] [µM]	GI50 [7] [µM]	GI50 [8] [µM]	GI50 [9] [µM]	Growth Percent [12] [%]	GI50 [10] [µM]	other results
O=C1c2cc3c(cc2-c2c1c1ccc(F)cc1c(=O)n2C[C@H](O)CO)OCO3	> 111	–	–	–	–	–	–	–	–	–	–	GI50 [2, 13]: 105 nM
O=C1c2cc3c(cc2-c2c1c1ccc(F)cc1c(=O)n2C[C@H](O)[C@@H](O)[C@H](O)CO)OCO3	> 111	–	–	–	–	–	–	–	–	–	–	GI50 [2, 13]: 78 nM
O=C1c2cc3c(cc2-c2c1c1ccc(Cl)cc1c(=O)n2C[C@H](O)CO)OCO3	> 111	–	–	–	–	–	–	–	–	–	–	GI50 [2, 13]: 42 nM
O=C1c2cc3c(cc2-c2c1c1ccc(Cl)cc1c(=O)n2C[C@H](O)[C@H](O)[C@H](O)CO)OCO3	> 111	–	–	–	–	–	–	–	–	–	–	–
O=C1c2cc3c(cc2-c2c1c1cc(F)c(F)cc1c(=O)n2C[C@H](O)CO)OCO3	> 111	–	–	–	–	–	–	–	–	–	–	GI50 [2, 13]: 68 nM
O=C1c2cc3c(cc2-c2c1c1cc(Cl)c(Cl)cc1c(=O)n2C[C@H](O)CO)OCO3	> 111	–	–	–	–	–	–	–	–	–	–	GI50 [2, 13]: 13 nM
O=C1c2ccccc2-c2c1c1ccccc1c(=O)n2CC(O)CO (racemic) [Compound 12c, (2′RS)-5,6-Dihydro-6-[(2′,3′-dihydroxypropyl)]-5,11-dioxo-11H-indeno[1,2-c]isoquinoline]	–	5.13	–	–	–	–	–	–	–	–	–	GI50 [3, 14]: 18.6 µM; GI50 [4, 15]: 4.36 µM; GI50 [5, 16]: 3.55 µM; GI50 [6, 17]: 2.95 µM; GI50 [7, 18]: 2.88 µM; GI50 [8, 19]: 7.58 µM; GI50 ([2]; Homo sapiens): 5130 nM; GI50 [9, 20]: 5.89 µM; GI50 [10, 21]: 7.76 µM
O=C1c2ccccc2-c2c1c1ccccc1c(=O)n2C[C@H](O)CO [Compound 12a, (2′S)-5,6-Dihydro-6-[(2′,3′-dihydroxypropyl)]-5,11-dioxo-11H-indeno[1,2-c]isoquinoline]	–	8.71	–	–	–	–	–	–	–	–	–	GI50 [3, 14]: 14.5 µM; GI50 [5, 16]: 4.9 µM; GI50 [6, 17]: 6.92 µM; GI50 [7, 18]: 5.75 µM; Top1 inhibitory activity [11]: +++ (+++, between 75% and 95% activity); GI50 [8, 19]: 5.37 µM; GI50 [9, 20]: 7.41 µM; GI50 [10, 21]: 5.01 µM
O=C1c2ccccc2-c2c1c1ccccc1c(=O)n2C[C@@H](O)CO [Compound 12b, (2′R)-5,6-Dihydro-6-[(2′,3′-dihydroxypropyl)]-5,11-dioxo-11H-indeno[1,2-c]isoquinoline]	–	6.24 ± 0.22	–	–	–	–	–	–	–	–	–	GI50 [3, 14]: 16.1 µM; GI50 [4, 15]: 4.47 µM; GI50 [5, 16]: 3.04 µM; GI50 [6, 17]: 3.77 µM; GI50 [7, 18]: 2.34 µM; melting point: 200 to 205 °C; GI50 [8, 19]: 4.36 µM; GI50 [9, 20]: 5.72 µM; GI50 [10, 21]: 3.79 µM
O=C1c2ccccc2-c2c1c1ccccc1c(=O)n2C[C@H](O)[C@H](O)[C@H](O)[C@H](O)CO [Compound 17h, (2′S,3′S,4′R,5′R)-5,6-Dihydro-6-(2′,3′,4′,5′,6′-pentahydroxyhexyl)-5,11-dioxo-11H-indeno[1,2-c]isoquinoline]	–	5.75	13.8	4.17	1.78	3.39	3.31	2.95	5.75	49.31	3.23	–
O=C1c2ccccc2-c2c1c1ccc([N+](=O)[O-])cc1c(=O)n2C[C@H](O)[C@@H](O)[C@H](O)[C@H](O)CO [Compound 19, (2′S,3′R,4′R,5′R)-5,6-Dihydro-6-(2′,3′,4′,5′,6′-pentahydroxyhexyl)-3-nitro-5,11-dioxo-11H-indeno[1,2-c]isoquinoline]	–	4.60 ± 0.53	–	–	–	–	–	–	–	58.05	–	GI50 [3, 14]: 4.26 µM; GI50 [4, 15]: 5.08 µM; GI50 [5, 16]: 0.88 µM; GI50 [6, 17]: 17.7 µM; GI50 [7, 18]: 4.76 µM; GI50 [8, 19]: 2.98 µM; GI50 [9, 20]: 2.61 µM; GI50 [10, 21]: 7.35 µM
O=C(CO)Cn1c2c(c3ccccc3c1=O)C(=O)c1ccccc1-2 [Compound 25, 5,6-Dihydro-6-(3′-hydroxy-2′-oxopropyl)-5,11-dioxo-11H-indeno[1,2-c]isoquinoline]	–	20.9	–	–	–	–	–	–	–	72.36	–	GI50 [3, 14]: 5.23 µM; GI50 [4, 15]: 30.9 µM; GI50 [5, 16]: 32.3 µM; GI50 [6, 17]: 81.3 µM; GI50 [7, 18]: 17.8 µM; GI50 [8, 19]: 58.9 µM; GI50 [9, 20]: 20 µM; GI50 [10, 21]: 40.7 µM
C[C@@H](O)Cn1c2c(c3ccccc3c1=O)C(=O)c1ccccc1-2 [Compound 27a, (2′R)-5,6-Dihydro-6-(2′-hydroxypropyl)-5,11-dioxo-11H-indeno[1,2-c]isoquinoline]	–	10.2	21.4	5.52	3.23	9.33	8.32	10.2	6.31	55.23	3.39	–
C[C@H](O)Cn1c2c(c3ccccc3c1=O)C(=O)c1ccccc1-2 [Compound 27c, (2′RS)-5,6-Dihydro-6-(2′-hydroxypropyl)-5,11-dioxo-11H-indeno[1,2-c]isoquinoline]	–	7.9	16.2	5.75	3.8	3.98	4.36	6.16	6.76	50.24	3.46	–
NC[C@H](O)Cn1c2c(c3ccccc3c1=O)C(=O)c1ccccc1-2 [Compound 27d, (2′RS)-5,6-Dihydro-6-(3′-amino-2′-hydroxypropyl)-5,11-dioxo-11H-indeno[1,2-c]isoquinoline]	–	0.348 ± 0.109	1.32	0.263	0.198	0.206	0.13	0.318	0.344	−23.49	0.276	GI50 [2]: 348 nM
COc1cc2c3c(n(C[C@H](O)CO)c(=O)c2cc1OC)-c1ccccc1C3=O [Compound 29, (2′S)-5,6-Dihydro-6-(2′,3′-dihydroxypropyl)-2,3-dimethoxy-5,11-dioxo-11H-indeno[1,2-c]isoquinoline]	–	0.401 ± 0.055	0.287	0.23	0.097	0.501	0.419	0.144	0.214	–	0.336	GI50 [2]: 401 nM
(1′RS)-5,6-Dihydro-6-(3′-hydroxy-2′-methylethyl)-5,11-dioxo-11H-indeno[1,2-c]isoquinoline [Compound 22c]	–	15.6 ± 2.15	25.7	15.9	34.4	37.1	23.7	11.7	14.4	–	17.6	–

From patent US9682990B2, “Alcohol-, diol-, and carbohydrate-substituted indenoisoquinolines as topoisomerase I inhibitors” (Purdue Research Foundation, priority 2011, dated 2017)
